Experimental findings from patent US5770595A, “Oxime substituted therapeutic compounds” (Cell Therapeutics, Inc., priority 1994, dated 1998) are described below.

Series [1] has as its system murine peritoneal macrophages. Nature of the series: TNF-α release from LPS-stimulated murine peritoneal macrophages. Particulars: 0.25 mM, LPS 10 μg/ml. In kind it is cell-based. As for the experimental part:
This example illustrates the ability of inventive compound no. 1521 to inhibit TNF-α release from murine peritoneal macrophages when stimulated with LPS. This assay is a model for septic shock. Macrophages (10^5) were treated with LPS at 10 μg/ml in RPMI media containing 10% fetal calf serum. Supernatants were assayed for TNF by an ELISA technique at various times following LPS stimulation. The cells were treated one hour prior to LPS stimulation with 0.25 mM of inventive compound no. 1521.

Series [2] concerns PBMC (peripheral blood mononuclear cells). Description: two-way mixed lymphocyte reaction. Particulars: FIG. 1; 6 days culture. In kind it is cell-based, human. The text has this:
Various in vitro assays can be used to measure effects of the inventive compounds to module immune activity and have antitumor activity using a variety of cellular types. For example, a mixed lymphocyte reaction (MLR) provides a valuable screening tool to determine biological activity of each inventive compound. In the MLR, PBMCs (peripheral blood mononuclear cells) are obtained by drawing whole blood from healthy volunteers in a heparinized container and diluted with an equal volume of hanks balanced salt solution (HBSS). This mixture is layered on a sucrose density gradient, such as a Ficoll-Hypaque® gradient (specific gravity 1.08), and centrifuged at 1000×g for 25 minutes at room temperature or cooler. PBMC are obtained from a band at a plasma-Ficoll interface, separated and washed at least twice in a saline solution, such as HBSS. Contaminating red cells are lysed, such as by ACK lysis for 10 min at 37° C., and the PBMCs are washed twice in HBSS. The pellet of purified PBMCs is resuspended in complete medium, such as RPMI 1640 plus 20% human inactivated serum. Proliferative response of PBMC to allogeneic stimulation is determined in a two-way MLR performed in a 96-well microtiter plate. Briefly, approximately 10^5 test purified PBMC cells in 200 μl complete medium are co-cultured with approximately 10^5 autologous (control culture) or allogeneic (stimulated culture) PBMC cells, wherein the allogeneic cells are from HLA disparate individuals. Varying doses of compounds (drug) are added at the time of addition of cells to the microtiter plate. The cultures are incubated for 6 days at 37° C. in a 5% CO2 atmosphere. At the conclusion of the incubation tritiated thymidine is added (for example, 1 μCi/well of 40 to 60 Ci/mmole) and proliferation determined by liquid scintillation. counting.
Example 10 illustrates a mixed lymphocyte reaction of inventive compounds nos. 1521 and 1522 (see above for chemical name and structure). […] Both compounds nos. […]

The subject of another series is L929 cells. Nature of the series: TNF-α-mediated cytotoxicity in L929 cells. In kind it is cell-based, murine. Particulars: human TNF-α 300 pg/ml; FIG. 9. As for the experimental part: An inventive compound can be assayed for activity protecting TNF-mediated cytotoxicity. In this assay, L929 murine fibroblast cells (10^4 cells per well) are incubated with either compounds at varying doses and media control for two hrs. […] The cells plus (or minus) drug plus TNF were incubated for 40 hrs at 37° C. The media is removed and replaced with fresh media containing 2% serum and 10 μg/ml of BCECF fluorescent dye and incubated for 30 min. The fluorescent dye-containing media is removed and replaced with PBS (phosphate buffered saline) and each well was assayed for fluorescence.
This assay is a model for septic shock. L929 cells (10^5) were treated with human TNF-α at 300 pg/ml in RPMI media containing 10% fetal calf serum with or without compound no. One day later, the cells were stained for viability using the fluorescent dye BCECF and fluorescence of the samples was analyzed using a Milipore plate reader.

The subject of series [3] is MCF-7, Hurdlich, RAS and NIH-3T3 cells. Description: cytotoxicity on several cell lines (BCECF viability). In kind it is cell-based. Particulars: 24 hours; FIG. 13. As to the method: Each inventive compound is investigated for cytotoxicity to determine appropriate doses for biological activity assays and to prevent cytotoxic reactions in in vitro assays when characterizing activity. Cells (e.g., NIH-3T3, Ras transformed 3T3 cells, malignant melanoma LD2 cells, etc.) are added to microtiter plates and drug is added about two days after plating. Cell viability is determined using a fluorescent viability slain (e.g., 2',7'-bis-(2-carboroxyethyl)-5-(and -6)-carboxyfluorescein acetoxymethyl ester, BCECF excitation 488 nm and emission 525 nm) 24, 48 or 72 hours after addition of the drug.
1522 is not cytotoxic to several cell lines. The cells lines used were MCF-7 a human breast cancer-derived line, Hurdlich cells a human stromal derived line, RAS a codon-12 transformed malignant murine line, and NIH-3T3 a non-Ras transformed parent line of RAS. The cells were treated with various concentrations of drug, and 24 hours later, stained for viability using BCECF and analyzed for fluorescent die uptake (indicating viable cells) using a fluorescence plate reader.

The test system of another series is murine thymocyte. Description: thymocyte proliferation stimulated by ConA and IL-2. In kind it is cell-based, murine (female Balb/C mice). The following applies: IL-2 20 ng/ml; drug two hours prior; FIG. 4. As to the method:
A thymocyte costimulator assay is conducted to evaluate the inventive compounds to inhibit activation and proliferation of thymocytes caused by stimulation with Con A and interleukin-1 (IL-1), or […]. Thymuses are obtained from mice (e.g., female Balb/C mice) and the thymuses are removed and dissociated into culture media (e.g., RPMI 1640 without serum supplementation). The dissociated thymus tissue and cell suspension is transferred to centrifuge tubes and allowed to settle, washed with HBSS and resuspended in serum-supplemented culture media (e.g., RPMI 1640 with 10% fetal calf serum). Any contaminating red cells are lysed, and viable cells are resuspended and counted. Thymocytes are plated (e.g., 96-well plates at a density of 2×10^5 cells/well) and a stimulating agent, such as Con A, IL-1 (e.g., IL-1α) or IL-2 is added to the well. The cells are incubated for 4 days at 37° C. On the fourth day, the cells are pulsed with tritiated thymidine and cell proliferation determined. […]
1522 on inhibition of thymocyte proliferation stimulated by ConA and interleukin-2 (IL-2) (20 ng/ml). Compound no. […]
Thymuses, obtained from normal, female Balb/C mice, were dissociated and plated into 96-well plates at a density of 2×10^5 cells/well. […] The amount of tritiated thymidine dye incorporated by the harvested cells was determined in a liquid scintillation counter. […]

SMILES strings stand for the structures.

As to `CC(CCCCn1c(=O)c2c(ncn2C)n(C)c1=O)=NO` [Compound no. 1521], in series [1], the “inhibition of TNF-α release” value is on record as “inhibited TNF release”. In addition, the “proliferative response of PBMC to allogeneic stimulation (MLR)” value in series [2] is listed as “showed activity in this immune modulating activity assay procedure”. Besides, the “protection of L929 cells from TNF-induced cytotoxicity” value in the series on L929 cells is reported as “inhibited TNF-induced cytotoxicity in a dose dependent manner”.
Consider `CON=C(C)CCCCn1c(=O)c2c(ncn2C)n(C)c1=O` [Compound no. 1522], for which the “proliferative response of PBMC to allogeneic stimulation (MLR)” value in series [2] is “showed activity in this immune modulating activity assay procedure”. In series [3], the “cytotoxicity (viability by BCECF)” value is on record as “non-toxic at therapeutic concentrations”. Further, the “inhibition of thymocyte proliferation, ConA + IL-2” value with murine thymocyte is on record as “inhibited thymocyte proliferation at the higher doses tested”.
